PubChem BioAssay (NCI)
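A five-concentration, 48-hour dose response in 96-well plates underlies each endpoint, interpolated linearly between surrounding concentrations. At the GI50, growth is halved. TGI marks complete inhibition of growth.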

Key:
Assay in all cases: NCI-60 cell line screen, 48 h
ACHN renal = tested on: ACHN renal
HCT-15 colon = tested on: HCT-15 colon
KM12 colon = tested on: KM12 colon
LOX IMVI melanoma = tested on: LOX IMVI melanoma
MDA-MB-231 breast = tested on: MDA-MB-231 breast
MDA-MB-435 = tested on: MDA-MB-435
PC-3 prostate = tested on: PC-3 prostate
RXF 393 renal = tested on: RXF 393 renal
SN12C renal = tested on: SN12C renal
T-47D breast = tested on: T-47D breast

Compound | GI50 (ACHN renal) | TGI (ACHN renal) | GI50 (HCT-15 colon) | TGI (HCT-15 colon) | GI50 (KM12 colon) | TGI (KM12 colon) | GI50 (LOX IMVI melanoma) | TGI (LOX IMVI melanoma) | GI50 (MDA-MB-231 breast) | TGI (MDA-MB-231 breast) | GI50 (MDA-MB-435) | TGI (MDA-MB-435) | GI50 (PC-3 prostate) | TGI (PC-3 prostate) | GI50 (RXF 393 renal) | TGI (RXF 393 renal) | GI50 (SN12C renal) | TGI (SN12C renal) | GI50 (T-47D breast) | TGI (T-47D breast)
Clc1ccc(Nc2nc(Nc3ccccc3)nc(Nc3ccc(-c4cc(-c5ccc(Cl)cc5)on4)cc3)n2)cc1 | 21.9 µM | > 100 µM | 14.1 µM | 84.8 µM | 13.5 µM | 52.4 µM | 13.7 µM | > 100 µM | 10.5 µM | 66.3 µM | 17.8 µM | 69.7 µM | 8.4 µM | > 100 µM | 11.3 µM | 37.6 µM | 24.8 µM | > 100 µM | 8.94 µM | > 100 µM
N#Cc1ccccc1C#C/C=C\C#Cc1ccccc1N | 7.88 µM | > 38.3 µM | 3.85 µM |  | 2.55 µM | > 51.3 µM | 4.04 µM | > 35.4 µM | 2.13 µM | 8.37 µM | 1.34 µM | 3.21 µM | 5.99 µM | > 75.9 µM | 7 µM | > 23.7 µM | 2.41 µM | 12.5 µM | 8.72 µM | > 100 µM
CC(=O)Nc1ccc(C(=O)NN2C(=O)C(Cl)C2c2cccc([N+](=O)[O-])c2)cc1 (stereo not drawn) |  | > 100 µM |  |  |  | > 100 µM |  |  |  |  |  |  |  |  |  |  |  |  |  | 
O=S(=O)(O)c1ccc2c(N=Nc3ccc(N=Nc4ccccc4)cc3)c(O)c(S(=O)(=O)O)cc2c1 |  | > 100 µM |  | > 100 µM |  | > 100 µM |  |  |  | > 100 µM |  | > 100 µM |  | > 100 µM |  | > 100 µM |  | > 100 µM |  | > 100 µM
Nc1cc(S(=O)(=O)O)cc2ccc(S(=O)(=O)O)cc12 |  | > 100 µM |  | > 100 µM |  | > 100 µM |  | > 100 µM |  | > 100 µM |  | > 100 µM |  | > 100 µM |  | > 100 µM |  | > 100 µM |  | > 100 µM
O=C(Nc1ccc(-n2ccc3c(NC(=O)c4ccccc4)nccc32)cc1)Nc1cccc(C(F)(F)F)c1 | 5.72 µM | 19.6 µM | 1.03 µM | 6.55 µM | 0.41 µM | 11.3 µM | 2.38 µM | 10.9 µM | 4.65 µM | 18.1 µM | 4.57 µM | 21.3 µM | 1.8 µM | 8.56 µM | 2.24 µM | 7.64 µM | 13.4 µM | 27 µM | 11.1 µM | 31 µM
C[N+]1(CCC(=O)c2ccccc2)CCC2CCC(C2)C1 (stereo not drawn) |  | > 100 µM |  | > 100 µM |  | > 100 µM |  | > 100 µM |  | > 100 µM |  | > 100 µM |  | > 100 µM |  | > 100 µM |  | > 100 µM |  | > 100 µM
CC1=CC(O)C(C(O)(C(F)(F)F)C(F)(F)F)C(C)(C)C1 (stereo not drawn) |  | > 10 µM |  | > 10 µM |  | > 10 µM |  | > 10 µM |  | > 10 µM |  |  |  | > 10 µM |  | > 10 µM |  | > 10 µM |  | > 10 µM
Cc1oc(N)c(S(=O)(=O)c2cc3ccccc3n(O)c2=N)c1C |  | > 100 µM |  | > 100 µM |  | > 100 µM |  | > 100 µM |  | > 100 µM |  | > 100 µM |  | > 100 µM |  |  |  | > 100 µM |  | > 100 µM
CC1=C[C@@H](C)C[C@]2(C)CC[C@H](O2)[C@]23CC[C@](CO)(C[C@H](O2)[C@@H]2O[C@@](C)(CC2=O)[C@@H](O)[C@H]2CC[C@@]4(CCC[C@@H](O4)[C@H](C)C(=O)O[C@H]4C[C@H]([C@]5(O)OCC[C@H](C)[C@@H]5O)O[C@H]4C=C1)O2)O3 |  | > 10 µM |  | > 10 µM |  | > 10 µM |  | 0.155 µM |  | 0.217 µM |  | > 10 µM |  | > 10 µM |  | 0.0801 µM |  | > 10 µM |  | > 10 µM
CC1C(=O)c2cc3c(cc2CCN(C)Cc2c1ccc1c2OCO1)OCO3 (stereo not drawn) | > 75 µg/mL | > 75 µg/mL | > 75 µg/mL | > 75 µg/mL | 59 µg/mL | > 75 µg/mL | 18.6 µg/mL | > 75 µg/mL | > 75 µg/mL | > 75 µg/mL | 47.7 µg/mL | > 75 µg/mL | 24 µg/mL | > 75 µg/mL | 13.1 µg/mL | 68.3 µg/mL | > 75 µg/mL | > 75 µg/mL | > 75 µg/mL | > 75 µg/mL
N=c1ccc2nc(N)nn(O)c-2c1 |  | > 100 µM |  | > 100 µM |  | > 100 µM |  | > 100 µM |  | > 100 µM |  | > 100 µM |  | > 100 µM |  |  |  | > 100 µM |  | > 100 µM
CC1(C(=O)O)C[C@](C)(C(=O)OCc2ccccc2)C[C@](C)(C(=O)OCc2ccccc2)C1 (stereo partly drawn) |  | 57.5 µM |  | 85.9 µM |  | 99.5 µM |  | 92.4 µM |  |  |  | > 100 µM |  | > 100 µM |  | 56.4 µM |  | > 100 µM |  | > 100 µM
CCOC(=O)c1c(-c2cccc(Cl)c2)c(C(=O)OC)c(C)c2sc(C=O)nc12 |  | 31.4 µM |  | 36.9 µM |  | 37.8 µM |  | 28.9 µM |  | 34.6 µM |  | 38.7 µM |  | 37.5 µM |  | 44.6 µM |  | 30.8 µM |  | 45.6 µM
OCCCSCCO |  | > 100 µM |  | > 100 µM |  | > 100 µM |  | > 100 µM |  | > 100 µM |  | > 100 µM |  | > 100 µM |  |  |  | > 100 µM |  | > 100 µM
Cc1ccc2nc(-c3ccc(NC(=O)c4ccc(N)cc4)c(S(=O)(=O)O)c3)sc2c1 |  | > 100 µM |  | > 100 µM |  | > 100 µM |  | > 100 µM |  | > 100 µM |  | > 100 µM |  | > 100 µM |  | > 100 µM |  | > 100 µM |  | > 100 µM
Cc1cc2ccc(OC(=O)c3ccc(N=C(N)N)cc3)cc2oc1=O |  | > 100 µM |  | > 100 µM |  | 61.1 µM |  | > 100 µM |  | 49.2 µM |  | 58.1 µM |  | 78.5 µM |  | > 100 µM |  | 64 µM |  | 95 µM
O=C(CC(c1ccccc1)C1C(=O)NC(=S)NC1=O)c1ccc([N+](=O)[O-])cc1 (stereo not drawn) |  | > 100 µM |  | > 100 µM |  | > 100 µM |  | > 100 µM |  | > 100 µM |  | > 100 µM |  | > 100 µM |  |  |  | > 100 µM |  | > 100 µM
CS(C)(=O)=Nn1c(=O)n2n(c1=O)C1c3ccccc3C2c2ccccc21 |  | > 100 µM |  | > 100 µM |  |  |  | > 100 µM |  | > 100 µM |  | > 100 µM |  | > 100 µM |  | > 100 µM |  |  |  | > 100 µM
CCN1CCN(c2nc3ccccc3nc2C(=O)c2ccc(OC)c(OC)c2)CC1 |  | 26.8 µM |  | 28.8 µM |  | 53.2 µM |  | 26.2 µM |  | 32 µM |  | 90.6 µM |  | > 100 µM |  | 29.8 µM |  | > 100 µM |  | > 100 µM
Cc1ccc(OCC2=NC3S/C(=C/c4ccc([N+](=O)[O-])o4)C(=O)N3N2)cc1 (stereo not drawn) |  | 3.14 µM |  | 7.04 µM |  | 32 µM |  | 13.3 µM |  | 26.6 µM |  | 19.8 µM |  | 18.2 µM |  | 28.5 µM |  | 37 µM |  | 5.39 µM
COC(=O)C1CC23C4=C(CCC41)CCC1CN4CC(C)C(CC(OC(C)=O)C12COC(C)=O)C43O (stereo not drawn) |  | > 100 µM |  | > 100 µM |  | > 100 µM |  | > 100 µM |  | > 100 µM |  | > 100 µM |  | > 100 µM |  | > 100 µM |  | > 100 µM |  | > 100 µM
Cc1cc(C)c2c(=O)n(CC(O)CN3CCN(CCOCCO)CC3)sc2n1 (stereo not drawn) |  | 35 µM |  | > 100 µM |  | 48 µM |  | 37.1 µM |  | 37.6 µM |  | 32.8 µM |  | 40.7 µM |  | 21 µM |  | 37.1 µM |  | 47.2 µM
COc1ccc(-c2nn(-c3ccc(NC(=O)c4cc(Cl)cc(Cl)c4)cc3)cc2-c2ccncc2)cc1Cl | > 100 µM | > 100 µM | 1.77 µM | > 100 µM | 4.29 µM | > 100 µM | 3.2 µM | > 100 µM | 1.39 µM | 4.85 µM | > 100 µM | > 100 µM | 5.38 µM | > 100 µM | 0.362 µM | 1.23 µM | > 100 µM | > 100 µM | > 100 µM | > 100 µM
O=C(Cc1csc2nc(-c3ccc(Cl)cc3)cn12)N/N=C/c1ccccc1O | 1.77 µM | > 100 µM | 0.468 µM | > 100 µM | 2.81 µM | > 100 µM | 1.93 µM | 36.1 µM | 13.1 µM | > 100 µM | 6.1 µM | > 100 µM | 3.46 µM | > 100 µM | 2.69 µM | 39.8 µM | 11 µM | > 100 µM | 4.16 µM | > 100 µM
COc1cccc(/C=N/[N-]C(N)=O)c1[O-].[Ni+2].[OH3+] |  | 2.07 µM |  | 1.17 µM |  | 0.91 µM |  | 2.15 µM |  |  |  |  |  |  |  | 0.8 µM |  | 1.49 µM |  | 
COc1cc(C2c3cc4c(cc3[C@@H](Nc3ccc(Oc5ccccc5)cc3)C3COC(=O)[C@H]23)OCO4)cc(OC)c1O (stereo partly drawn) |  |  |  | 19.7 µM |  | > 100 µM |  | > 100 µM |  |  |  |  |  |  |  | > 100 µM |  | > 25.5 µM |  | 
O=C(/C=C1\N=C(c2ccccc2)N(c2nc3c(Cl)cc(Cl)cc3s2)C1=O)/C=C/c1ccccc1 |  | > 100 µM |  | > 100 µM |  | > 100 µM |  | > 100 µM |  | > 100 µM |  | > 100 µM |  | > 100 µM |  | > 100 µM |  | > 100 µM |  | > 100 µM
